The test system of one data set is A549. The experiment in a line: MTT antiproliferative assay, A549 cells. Particulars: Homo sapiens, 48 h, MTT, read-out: Antiproliferative activity (growth inhibition, %); for inhibition at 2 µg/mL: A549, 2 μg/mL; for inhibition at 20 µg/mL: A549, 20 μg/mL. The format is cell-based. The method, then:
(§1) All the cells were seeded in 96-well plates and incubated with 5% CO2 at 37 °C for 24 h. Next, the compounds and the reference were dissolved into the culture medium. The final concentration of DMSO in the medium was less than 0.5%. After the cells were treated with compounds for 48 h, the supernatant was removed and 5 mg/mL of a fresh prepared solution of MTT was added to each well and incubated with the cells at 37 °C for another 4 h. The medium was removed, and 100 μL of testing solution was added to each well. After an overnight incubation with 5% CO2 at 37 °C, the absorbance was measured at 490/630 nm by the microplate reader. The IC50 was calculated using GraphPad Prism version 6.0 software (San Diego, CA, USA) from the non-linear curve.

Another data set deals with HT29. The experiment in a line: MTT antiproliferative assay, HT29 cells. It counts as cell-based. The conditions noted are these: Homo sapiens, HT-29, 48 h, MTT, read-out: Antiproliferative activity (growth inhibition, %); for inhibition at 2 µg/mL: HT29, 2 μg/mL; for inhibition at 20 µg/mL: HT29, 20 μg/mL. Here is the method:
as §1
Background: Tetrazolium assays rely on reduction of a dye to a coloured formazan, in cell work by metabolically active cells.

The compound `COc1cccc(NC(=O)O[C@H]2CC[C@@]3(C)C(CC[C@]4(C)[C@@H]3C(=O)C=C3[C@@H]5C[C@@](C)(C(=O)N6CCOCC6)CC[C@]5(C)CC[C@]34C)C2(C)C)c1` (stereo partly drawn) [4l, 3β-(((3-methoxyphenyl)carbamoyl)oxy)-30-morpholino-olean-12-ene-11,30-dione] registered a melting point of 305 to 306.8 °C. Moreover, in the data set with A549, the inhibition at 2 µg/mL came to 0% and the inhibition at 20 µg/mL amounted to 0%. In the data set with HT29, the inhibition at 2 µg/mL was 13.6% and the inhibition at 20 µg/mL amounted to 16.6%.

The compound `CC1(C)C2CC[C@]3(C)[C@H](C(=O)C=C4[C@@H]5C[C@@](C)(C(=O)O)CC[C@]5(C)CC[C@]43C)[C@@]2(C)CC[C@@H]1OC(=O)Nc1ccc(Br)cc1` (stereo partly drawn) [3g, 3β-(((4-bromophenyl)carbamoyl)oxy)-11-oxo-olean-12-en-30-oic acid] registered a melting point of 263 to 265 °C. In the data set with A549, the inhibition at 2 µg/mL came out at 9.72% and the inhibition at 20 µg/mL was determined as 63.4%. Further, in the data set on HT29, the inhibition at 2 µg/mL is 18.6% and the inhibition at 20 µg/mL is 76.5%.

For `COc1cccc(NC(=O)O[C@H]2CC[C@@]3(C)C(CC[C@]4(C)[C@@H]3C(=O)C=C3[C@@H]5C[C@@](C)(C(=O)O)CC[C@]5(C)CC[C@]34C)C2(C)C)c1` (stereo partly drawn) [3l, 3β-(((3-methoxyphenyl)carbamoyl)oxy)-11-oxo-olean-12-en-30-oic acid], the melting point lay in the range of 259.5 to 261.1 °C. In the data set on A549, the inhibition at 2 µg/mL was 9.74% and the inhibition at 20 µg/mL was determined as 53.7%. In the data set on HT29, the inhibition at 2 µg/mL turned out to be 6.06% and the inhibition at 20 µg/mL was 47.4%.

Consider `CC1(C)C2CC[C@]3(C)[C@H](C(=O)C=C4[C@@H]5C[C@@](C)(C(=O)O)CC[C@]5(C)CC[C@]43C)[C@@]2(C)CC[C@@H]1OC(=O)CN1CCN(c2ccccn2)CC1` (stereo partly drawn) [6d, 3β-(2-(4-(pyridin-2-yl)piperazin-1-yl)acetoxy)-11-oxo-olean-12-en-30-oic acid], for which the melting point was 294 to 295.6 °C. In addition, in the data set with A549, the inhibition at 2 µg/mL is 0% and the inhibition at 20 µg/mL was found to be 0%. In addition, in the data set with HT29, the inhibition at 2 µg/mL came out at 0% and the inhibition at 20 µg/mL came to 0%.

Turning to `CC1(C)C2CC[C@]3(C)[C@H](C(=O)C=C4[C@@H]5C[C@@](C)(C(=O)N6CCOCC6)CC[C@]5(C)CC[C@]43C)[C@@]2(C)CC[C@@H]1OC(=O)Nc1ccc(Cl)c(C(F)(F)F)c1` (stereo partly drawn) [4b, 3β-(((4-chloro-3-(trifluoromethyl)phenyl)carbamoyl)oxy)-30-morpholino-olean-12-ene-11,30-dione], the melting point fell in the range of 209.5 to 211.1 °C. Moreover, in the data set with A549, the inhibition at 2 µg/mL worked out at 0% and the inhibition at 20 µg/mL was 0%. Moreover, in the data set with HT29, the inhibition at 2 µg/mL is 14.4% and the inhibition at 20 µg/mL came to 32.8%.

`CN1CCN(CC(=O)O[C@H]2CC[C@@]3(C)C(CC[C@]4(C)[C@@H]3C(=O)C=C3[C@@H]5C[C@@](C)(C(=O)O)CC[C@]5(C)CC[C@]34C)C2(C)C)CC1` (stereo partly drawn) [6c, 3β-(2-(4-methylpiperazin-1-yl)acetoxy)-11-oxo-olean-12-en-30-oic acid] displayed a melting point of 287.5 to 288.9 °C. In the data set with A549, the inhibition at 2 µg/mL was 0% and the inhibition at 20 µg/mL worked out at 0%. Further, in the data set on HT29, the inhibition at 2 µg/mL was determined as 0% and the inhibition at 20 µg/mL is 0%.

On to `CC1(C(=O)N2CCOCC2)CCC2(C)CCC3(C)C(=CC(=O)C4C5(C)CCC(OC(=O)Nc6cccc(C(F)(F)F)c6)C(C)(C)C5CCC43C)C2C1` (stereo not drawn) [4j, 3β-(((3-(trifluoromethyl)phenyl)carbamoyl)oxy)-30-morpholino-olean-12-ene-11,30-dione], for which the melting point lay in the range of 295 to 296.7 °C. Besides, in the data set with A549, the inhibition at 2 µg/mL was 0% and the inhibition at 20 µg/mL stood at 0%. In the data set on HT29, the inhibition at 2 µg/mL was 20.3% and the inhibition at 20 µg/mL came to 36.4%.

`Cc1ccc(NC(=O)O[C@H]2CC[C@@]3(C)C(CC[C@]4(C)[C@@H]3C(=O)C=C3[C@@H]5C[C@@](C)(C(=O)N6CCOCC6)CC[C@]5(C)CC[C@]34C)C2(C)C)cc1Cl` (stereo partly drawn) [4f, 3β-(((3-chloro-4-methylphenyl)carbamoyl)oxy)-30-morpholino-olean-12-ene-11,30-dione] came in with a melting point of 293.7 to 295.6 °C. In the data set on A549, the inhibition at 2 µg/mL was 0% and the inhibition at 20 µg/mL turned out to be 0%. Also, in the data set with HT29, the inhibition at 2 µg/mL amounted to 7.1% and the inhibition at 20 µg/mL was found to be 18.4%.

On to `CC1(C)C2CC[C@]3(C)[C@H](C(=O)C=C4[C@@H]5C[C@@](C)(C(=O)O)CC[C@]5(C)CC[C@]43C)[C@@]2(C)CC[C@@H]1OC(=O)Nc1ccc(F)cc1` (stereo partly drawn) [3h, 3β-(((4-fluorophenyl)carbamoyl)oxy)-11-oxo-olean-12-en-30-oic acid], for which the melting point was 267.9 to 268.9 °C. In addition, in the data set on A549, the inhibition at 2 µg/mL was 34.4% and the inhibition at 20 µg/mL amounted to 56.7%. Besides, in the data set on HT29, the inhibition at 2 µg/mL came to 11.8% and the inhibition at 20 µg/mL amounted to 58.6%.

For the compound `COc1ccc(NC(=O)O[C@H]2CC[C@@]3(C)C(CC[C@]4(C)[C@@H]3C(=O)C=C3[C@@H]5C[C@@](C)(C(=O)N6CCOCC6)CC[C@]5(C)CC[C@]34C)C2(C)C)cc1` (stereo partly drawn) [4m, 3β-(((4-methoxyphenyl)carbamoyl)oxy)-30-morpholino-olean-12-ene-11,30-dione], the melting point fell in the range of 305 to 306.7 °C. For the same compound, in the data set with A549, the inhibition at 2 µg/mL is 0% and the inhibition at 20 µg/mL was 8.11%. Also, in the data set with HT29, the inhibition at 2 µg/mL amounted to 15.7% and the inhibition at 20 µg/mL was found to be 23.2%.

As to `CC1(C)C2CC[C@]3(C)[C@H](C(=O)C=C4[C@@H]5C[C@@](C)(C(=O)N6CCOCC6)CC[C@]5(C)CC[C@]43C)[C@@]2(C)CC[C@@H]1OC(=O)Nc1cccc(Cl)c1` (stereo partly drawn) [4e, 3β-(((3-chlorophenyl)carbamoyl)oxy)-30-morpholino-olean-12-ene-11,30-dione], the melting point is 291 to 292.5 °C. Besides, in the data set with A549, the inhibition at 2 µg/mL turned out to be 0% and the inhibition at 20 µg/mL is 0%. In the data set on HT29, the inhibition at 2 µg/mL worked out at 7.22% and the inhibition at 20 µg/mL is 13.2%.

In the case of `CC1(C)C2CC[C@]3(C)[C@H](C(=O)C=C4[C@@H]5C[C@@](C)(C(=O)O)CC[C@]5(C)CC[C@]43C)[C@@]2(C)CC[C@@H]1OC(=O)Cc1ccc(F)cc1` (stereo partly drawn) [7b, 3β-(2-(4-fluorophenyl)acetoxy)-11-oxo-olean-12-en-30-oic acid], the melting point lay within 305 to 307.7 °C. Also, in the data set with A549, the inhibition at 2 µg/mL was 15.3% and the inhibition at 20 µg/mL worked out at 31.2%. In the data set with HT29, the inhibition at 2 µg/mL was 44.1% and the inhibition at 20 µg/mL is 59%.

`CC1(C(=O)N2CCOCC2)CCC2(C)CCC3(C)C(=CC(=O)C4C5(C)CCC(OC(=O)Nc6ccc(Cl)cc6)C(C)(C)C5CCC43C)C2C1` (stereo not drawn) [4d, 3β-(((4-chlorophenyl)carbamoyl)oxy)-30-morpholino-olean-12-ene-11,30-dione] came in with a melting point of 298.4 to 299.7 °C. In the data set with A549, the inhibition at 2 µg/mL stood at 0% and the inhibition at 20 µg/mL worked out at 54.4%. Also, in the data set with HT29, the inhibition at 2 µg/mL came out at 16.3% and the inhibition at 20 µg/mL was found to be 53.7%.

The compound `CC1(C)C2CC[C@]3(C)[C@H](C(=O)C=C4[C@@H]5C[C@@](C)(C(=O)O)CC[C@]5(C)CC[C@]43C)[C@@]2(C)CC[C@@H]1OC(=O)Nc1ccc(C(F)(F)F)cc1` (stereo partly drawn) [3i, 3β-(((4-(trifluoromethyl)phenyl)carbamoyl)oxy)-11-oxo-olean-12-en-30-oic acid] had a melting point of 242.1 to 242.9 °C. Also, in the data set with A549, the inhibition at 2 µg/mL was found to be 15.9% and the inhibition at 20 µg/mL was found to be 87.5%. Besides, in the data set with HT29, the inhibition at 2 µg/mL was 19.4% and the inhibition at 20 µg/mL is 90.1%.

Compound `CC1(C(=O)O)CCC2(C)CCC3(C)C(=CC(=O)C4C5(C)CCC(OC(=O)Cc6ccc(Cl)cc6)C(C)(C)C5CCC43C)C2C1` (stereo not drawn) [7a, 3β-(2-(4-chlorophenyl)acetoxy)-11-oxo-olean-12-en-30-oic acid] yielded a melting point of 312 to 312.7 °C. Further, in the data set with A549, the inhibition at 2 µg/mL amounted to 11.3% and the inhibition at 20 µg/mL came to 27.4%. Besides, in the data set with HT29, the inhibition at 2 µg/mL was found to be 33.3% and the inhibition at 20 µg/mL worked out at 57.5%.

For `CC1(C(=O)N2CCOCC2)CCC2(C)CCC3(C)C(=CC(=O)C4C5(C)CCC(OC(=O)Nc6ccc(Br)cc6)C(C)(C)C5CCC43C)C2C1` (stereo not drawn) [4g, 3β-(((4-bromophenyl)carbamoyl)oxy)-30-morpholino-olean-12-ene-11,30-dione], in the data set on A549, the inhibition at 2 µg/mL came out at 0% and the inhibition at 20 µg/mL is 1.02%. Moreover, in the data set on HT29, the inhibition at 2 µg/mL came out at 14.3% and the inhibition at 20 µg/mL came out at 27.1%.

Compound `CC1(C)C2CC[C@]3(C)[C@H](C(=O)C=C4[C@@H]5C[C@@](C)(C(=O)N6CCOCC6)CC[C@]5(C)CC[C@]43C)[C@@]2(C)CC[C@@H]1OC(=O)Nc1cc(C(F)(F)F)cc(C(F)(F)F)c1` (stereo partly drawn) [4k, 3β-(((3,5-bis(trifluoromethyl)phenyl)carbamoyl)oxy)-30-morpholino-olean-12-ene-11,30-dione] registered a melting point of 313.4 to 314.7 °C. In the data set with A549, the inhibition at 2 µg/mL was 4.47% and the inhibition at 20 µg/mL turned out to be 0%. Also, in the data set on HT29, the inhibition at 2 µg/mL was 13% and the inhibition at 20 µg/mL was 14.9%.

Usually inhibition stands for the change of the read-out against control, counted positive when it falls. The term melting point denotes the temperature of the solid-liquid transition.

The record behind these values is publication PMC6803848, “Exploring New Structural Features of the 18β-Glycyrrhetinic Acid Scaffold for the Inhibition of Anaplastic Lymphoma Kinase” (Molecules, 2019).
